Experimental data reported in ChEMBL document CHEMBL1177848, “Synthesis of novel 6,6a,7,8-tetrahydro-5H-naphtho[1,2-e]pyrimido[4,5-b][1,4]diazepines under microwave irradiation as potential anti-tumor agents” (2010).
Active and inactive are the calls of the source. No cut-off for these calls is given here.

Legend:
NCI-H226 = test: Growth inhibition of human NCI-H226 cells after 48 hrs by sulforhodamine B assay; format: functional; conditions: NCI-H226, 48 h
NCI-H23 [1] = test: Growth inhibition of human NCI-H23 cells after 48 hrs by sulforhodamine B assay; format: functional; conditions: NCI-H23, 48 h
NCI-H460 [2] = test: Growth inhibition of human NCI-H460 cells after 48 hrs by sulforhodamine B assay; format: functional; conditions: NCI-H460, 48 h
NCI-H522 = test: Growth inhibition of human NCI-H522 cells after 48 hrs by sulforhodamine B assay; format: functional; conditions: NCI-H522, 48 h
SF-295 = test: Growth inhibition of human SF295 cells after 48 hrs by sulforhodamine B assay; format: functional; conditions: SF-295, 48 h
MDA-MB-435 = test: Growth inhibition of human MDA-MB-435 cells after 48 hrs by sulforhodamine B assay; format: functional; conditions: MDA-MB-435, 48 h
UACC-257 = test: Growth inhibition of human UACC257 cells after 48 hrs by sulforhodamine B assay; format: functional; conditions: UACC-257, 48 h
UACC-62 [3] = test: Growth inhibition of human UACC62 cells after 48 hrs by sulforhodamine B assay; format: functional; conditions: UACC-62, 48 h
A498 = test: Growth inhibition of human A498 cells after 48 hrs by sulforhodamine B assay; format: functional; conditions: A498, 48 h
ACHN = test: Growth inhibition of human ACHN cells after 48 hrs by sulforhodamine B assay; format: functional
CAKI-1 [4] = test: Growth inhibition of human Caki1 cells after 48 hrs by sulforhodamine B assay; format: functional; conditions: CAKI-1, 48 h
RXF 393 = test: Growth inhibition of human RXF393 cells after 48 hrs by sulforhodamine B assay; format: functional; conditions: RXF 393, 48 h
SN12C = test: Growth inhibition of human SN12C cells after 48 hrs by sulforhodamine B assay; format: functional
TK-10 [5] = test: Growth inhibition of human TK10 cells after 48 hrs by sulforhodamine B assay; format: functional; conditions: TK-10, 48 h
MCF7 [6] = test: Growth inhibition of human MCF7 cells after 48 hrs by sulforhodamine B assay; format: functional; conditions: MCF7, 48 h
BT-549 [7] = test: Growth inhibition of human BT549 cells after 48 hrs by sulforhodamine B assay; format: functional; conditions: BT-549, 48 h
T47D = test: Growth inhibition of human T47D cells after 48 hrs by sulforhodamine B assay; format: functional
SR = test: Growth inhibition of human SR cells at 1 uM after 48 hrs by sulforhodamine B assay; format: functional, cell-based
K562 = test: Growth inhibition of human K562 cells at 1 uM after 48 hrs by sulforhodamine B assay; format: functional, cell-based
MOLT-4 = test: Growth inhibition of human MOLT4 cells at 1 uM after 48 hrs by sulforhodamine B assay; format: functional, cell-based
HOP-92 = test: Growth inhibition of human HOP92 cells at 1 uM after 48 hrs by sulforhodamine B assay; format: functional, cell-based
NCI-H23 [8] = test: Growth inhibition of human NCI-H23 cells at 1 uM after 48 hrs by sulforhodamine B assay; format: functional, cell-based
NCI-H460 [9] = test: Growth inhibition of human NCI-H460 cells at 1 uM after 48 hrs by sulforhodamine B assay; format: functional, cell-based
NCI-H322M = test: Growth inhibition of human […] cells at 1 uM after 48 hrs by sulforhodamine B assay; format: functional, cell-based
COLO 205 = test: Growth inhibition of human COLO205 cells at 1 uM after 48 hrs by sulforhodamine B assay; format: functional, cell-based
HCT-15 = test: Growth inhibition of human HCT15 cells at 1 uM after 48 hrs by sulforhodamine B assay; format: functional, cell-based
HT-29 = test: Growth inhibition of human HT-29 cells at 1 uM after 48 hrs by sulforhodamine B assay; format: functional, cell-based
U-251 = test: Growth inhibition of human U251 cells at 1 uM after 48 hrs by sulforhodamine B assay; format: functional, cell-based
SF530 = test: Growth inhibition of human SF530 cells at 1 uM after 48 hrs by sulforhodamine B assay; format: functional, cell-based
SNB-75 = test: Growth inhibition of human SNB75 cells at 1 uM after 48 hrs by sulforhodamine B assay; format: functional, cell-based
LOX IMVI = test: Growth inhibition of human LOXIMVI cells at 1 uM after 48 hrs by sulforhodamine B assay; format: functional, cell-based
Malme-3M = test: Growth inhibition of human MALME-3M cells at 1 uM after 48 hrs by sulforhodamine B assay; format: functional, cell-based
SK-MEL-5 = test: Growth inhibition of human SK-MEL-5 cells at 1 uM after 48 hrs by sulforhodamine B assay; format: functional, cell-based
UACC-62 [10] = test: Growth inhibition of human UACC62 cells at 1 uM after 48 hrs by sulforhodamine B assay; format: functional, cell-based
IGROV-1 = test: Growth inhibition of human IGROV1 cells at 1 uM after 48 hrs by sulforhodamine B assay; format: functional, cell-based
NCI/ADR-RES = test: Growth inhibition of human NCI/ADR-RES cells at 1 uM after 48 hrs by sulforhodamine B assay; format: functional, cell-based
OVCAR-8 = test: Growth inhibition of human OVCAR8 cells at 1 uM after 48 hrs by sulforhodamine B assay; format: functional, cell-based
CAKI-1 [11] = test: Growth inhibition of human Caki1 cells at 1 uM after 48 hrs by sulforhodamine B assay; format: functional, cell-based
TK-10 [12] = test: Growth inhibition of human TK10 cells at 1 uM after 48 hrs by sulforhodamine B assay; format: functional, cell-based
786-0 = test: Growth inhibition of human 786-0 cells at 1 uM after 48 hrs by sulforhodamine B assay; format: functional, cell-based
PC-3 = test: Growth inhibition of human PC3 cells at 1 uM after 48 hrs by sulforhodamine B assay; format: functional, cell-based
DU-145 = test: Growth inhibition of human DU145 cells at 1 uM after 48 hrs by sulforhodamine B assay; format: functional, cell-based
MCF7 [13] = test: Growth inhibition of human MCF7 cells at 1 uM after 48 hrs by sulforhodamine B assay; format: functional, cell-based
MDA-MB-231 = test: Growth inhibition of human MDA-MB-231 cells at 1 uM after 48 hrs by sulforhodamine B assay; format: functional, cell-based
BT-549 [14] = test: Growth inhibition of human BT549 cells at 1 uM after 48 hrs by sulforhodamine B assay; format: functional, cell-based
MDA-MB-468 = test: Growth inhibition of human MDA-MB-468 cells at 1 uM after 48 hrs by sulforhodamine B assay; format: functional, cell-based
Hs-578T = test: Growth inhibition of human Hs 578T cells at 1 uM after 48 hrs by sulforhodamine B assay; format: functional, cell-based
[15] = read-out: LC50 (the source's name)

Nc1nc(N)c2c(n1)NC(c1ccccc1)C1CCc3ccccc3C1=N2 (centres undefined)
GI50 (NCI-H226): 5.96 µM
LC50 (NCI-H226): > 100 µM
GI50 (NCI-H23 [1]): 4.56 µM
LC50 (NCI-H23 [1]): 57.4 µM
GI50 (NCI-H460 [2]): 3.81 µM
LC50 (NCI-H460 [2]): 44.2 µM
GI50 (NCI-H522): 4.53 µM
LC50 (NCI-H522): 65.4 µM
GI50 (SF-295): 1.69 µM
LC50 (50% lethal concentration) (SF-295): 34.4 µM
GI50 (MDA-MB-435): 2.93 µM
LC50 (concentration killing 50% of cells) (MDA-MB-435): 39.9 µM
GI50 (UACC-257): 3.72 µM
CC50 (UACC-257; [15]): 42.6 µM
GI50 (UACC-62 [3]): 3.11 µM
LC50 (UACC-62 [3]): 45 µM
GI50 (A498): 2.29 µM
LC50 (A498): 30.2 µM
GI50 (ACHN): 4.38 µM
LC50 (50% lethal concentration) (ACHN): 41.9 µM
GI50 (CAKI-1 [4]): 3.97 µM
CC50 (CAKI-1 [4]; [15]): 48.5 µM
GI50 (RXF 393): 4.89 µM
LC50 (50% lethal concentration) (RXF 393): 66.7 µM
GI50 (SN12C): 7.33 µM
CC50 (SN12C; [15]): 50.8 µM
GI50 (TK-10 [5]): 3.01 µM
LC50 (50% lethal concentration) (TK-10 [5]): 43.6 µM
GI50 (MCF7 [6]): 3.25 µM
LC50 (MCF7 [6]): 46.7 µM
GI50 (BT-549 [7]): 5.42 µM
CC50 (BT-549 [7]; [15]): 47.9 µM
GI50 (T47D): 4.57 µM
CC50 (T47D; [15]): > 100 µM
growth inhibition (GI) (SR): inactive
growth inhibition (GI) (K562): inactive
growth inhibition (GI) (MOLT-4): inactive
growth inhibition (GI) (HOP-92): inactive
growth inhibition (GI) (NCI-H23 [8]): inactive
growth inhibition (GI) (NCI-H460 [9]): inactive
growth inhibition (GI) (NCI-H322M): inactive
growth inhibition (GI) (COLO 205): inactive
growth inhibition (GI) (HCT-15): inactive
growth inhibition (GI) (HT-29): inactive
growth inhibition (GI) (U-251): inactive
growth inhibition (GI) (SF530): inactive
growth inhibition (GI) (SNB-75): inactive
growth inhibition (GI) (LOX IMVI): inactive
growth inhibition (GI) (Malme-3M): inactive
growth inhibition (GI) (SK-MEL-5): inactive
growth inhibition (GI) (UACC-62 [10]): inactive
growth inhibition (GI) (IGROV-1): inactive
growth inhibition (GI) (NCI/ADR-RES): inactive
growth inhibition (GI) (OVCAR-8): inactive
growth inhibition (GI) (CAKI-1 [11]): inactive
growth inhibition (GI) (TK-10 [12]): inactive
growth inhibition (GI) (786-0): inactive
growth inhibition (GI) (PC-3): inactive
growth inhibition (GI) (DU-145): inactive
growth inhibition (GI) (MCF7 [13]): inactive
growth inhibition (GI) (MDA-MB-231): inactive
growth inhibition (GI) (BT-549 [14]): inactive
growth inhibition (GI) (MDA-MB-468): inactive
growth inhibition (GI) (Hs-578T): inactive
